Experimental data taken from ChEMBL document CHEMBL3286266, “Development of novel benzomorpholine class of diacylglycerol acyltransferase I inhibitors” (ACS Med Chem Lett, 2014).
Converted amounts (≈) assume the structure as drawn.

Legend:
[1] = target: T1, Diacylglycerol O-acyltransferase 1 (Mus musculus, UniProt Q9Z2A7); test: Inhibition of mouse DGAT1 expressed in Sf9 insect cells using 1,2-dioleoyl-sn-glycerol and [14C]-palmitoyl-CoA substrate by scintillation counting analysis
T1 sequence (Q9Z2A7 whole entry): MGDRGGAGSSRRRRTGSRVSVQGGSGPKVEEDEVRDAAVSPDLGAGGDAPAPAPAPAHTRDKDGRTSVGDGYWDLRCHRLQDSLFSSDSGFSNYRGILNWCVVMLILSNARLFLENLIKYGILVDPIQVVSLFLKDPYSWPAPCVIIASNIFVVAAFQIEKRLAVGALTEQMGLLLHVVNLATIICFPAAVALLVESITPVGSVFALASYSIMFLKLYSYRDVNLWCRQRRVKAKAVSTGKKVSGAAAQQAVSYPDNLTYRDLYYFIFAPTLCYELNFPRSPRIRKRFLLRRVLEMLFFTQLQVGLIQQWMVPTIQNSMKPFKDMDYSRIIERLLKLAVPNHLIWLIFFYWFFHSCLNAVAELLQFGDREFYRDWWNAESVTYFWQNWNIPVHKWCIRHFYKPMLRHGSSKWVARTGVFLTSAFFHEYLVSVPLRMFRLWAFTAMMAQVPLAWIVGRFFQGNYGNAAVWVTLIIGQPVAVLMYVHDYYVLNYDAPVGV

[2] = target: T2, Diacylglycerol O-acyltransferase 1 (Homo sapiens, UniProt O75907); test: Inhibition of human DGAT1 expressed in Sf9 insect cells using 1,2-dioleoyl-sn-glycerol and [14C]-palmitoyl-CoA substrate by scintillation counting analysis
T2 sequence (O75907 whole entry): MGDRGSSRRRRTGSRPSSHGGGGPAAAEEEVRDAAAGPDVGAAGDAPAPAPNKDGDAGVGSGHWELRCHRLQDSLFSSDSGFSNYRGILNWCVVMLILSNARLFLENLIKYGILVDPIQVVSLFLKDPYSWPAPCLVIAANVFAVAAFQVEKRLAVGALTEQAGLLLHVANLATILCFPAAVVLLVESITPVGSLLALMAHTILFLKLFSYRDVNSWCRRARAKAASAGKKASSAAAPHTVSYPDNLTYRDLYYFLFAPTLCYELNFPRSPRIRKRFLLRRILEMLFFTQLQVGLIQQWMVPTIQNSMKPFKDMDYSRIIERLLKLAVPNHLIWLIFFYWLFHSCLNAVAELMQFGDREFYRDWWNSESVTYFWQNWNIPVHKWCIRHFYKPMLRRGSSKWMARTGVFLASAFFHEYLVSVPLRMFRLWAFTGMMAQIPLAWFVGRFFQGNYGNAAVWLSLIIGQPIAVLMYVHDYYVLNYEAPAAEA

Mus musculus [3] = test: Reduction in triglycerides level in mouse at 10 mg/kg, po after 2 hrs by postprandial triglyceride assay; type: functional
[4] = target: T3, Sterol O-acyltransferase 2 (Homo sapiens, UniProt O75908); test: Inhibition of human ACAT2 expressed in Sf9 insect cells using [14C]-oleoyl-CoA by scintillation counting analysis
T3 sequence (O75908 whole entry): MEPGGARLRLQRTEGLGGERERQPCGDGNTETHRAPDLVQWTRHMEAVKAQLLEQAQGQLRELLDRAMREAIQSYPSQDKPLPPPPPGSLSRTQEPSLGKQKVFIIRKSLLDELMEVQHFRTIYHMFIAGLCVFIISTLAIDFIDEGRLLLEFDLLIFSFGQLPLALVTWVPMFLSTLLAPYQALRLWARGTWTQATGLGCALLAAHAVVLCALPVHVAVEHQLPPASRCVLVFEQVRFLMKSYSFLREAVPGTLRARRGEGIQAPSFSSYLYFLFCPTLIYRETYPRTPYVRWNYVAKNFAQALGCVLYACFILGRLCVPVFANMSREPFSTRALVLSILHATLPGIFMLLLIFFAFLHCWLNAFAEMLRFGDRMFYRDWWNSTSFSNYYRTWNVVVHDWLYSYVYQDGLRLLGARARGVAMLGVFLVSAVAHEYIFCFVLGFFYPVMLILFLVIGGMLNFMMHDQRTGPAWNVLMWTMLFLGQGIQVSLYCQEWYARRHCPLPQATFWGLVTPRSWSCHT

[5] = AUC in mouse at 10 mg/kg; type: ADME, organism-based; parameters: dose 10 mg/kg; settings: plasma
Mus musculus [6] = test: Reduction in triglycerides level in mouse at 3 mg/kg, po after 2 hrs by postprandial triglyceride assay; type: functional
[7] = Metabolic stability in human plasma assessed as compound loss measured at 12 hrs at 25 degC; type: ADME, cell-free; settings: read-out: Drug metabolism
Homo sapiens [8] = species: Homo sapiens; test: Selectivity for human DGAT1 over human DGAT2
Homo sapiens [9] = species: Homo sapiens; test: Selectivity for human DGAT1 over human ACAT
[10] = Permeability in human Caco2 cells; type: ADME, cell-based; settings: Caco-2, read-out: permeability
[11] = Solubility of the compound; type: physicochemical
[12] = Clearance in rat liver hepatocytes measured per million cells; type: ADME, cell-based, Hepatocyte; settings: read-out: CLH
[13] = Clearance in human liver hepatocytes measured per million cells; type: ADME, cell-based, Hepatocyte; settings: read-out: CLH
CYP1A1 = target: T4, CYP1A1 (Homo sapiens, UniProt P04798); test: Induction of CYP1A1 (unknown origin) at 30 uM relative to control; type: ADME; settings: read-out: FC
T4 sequence (P04798 whole entry): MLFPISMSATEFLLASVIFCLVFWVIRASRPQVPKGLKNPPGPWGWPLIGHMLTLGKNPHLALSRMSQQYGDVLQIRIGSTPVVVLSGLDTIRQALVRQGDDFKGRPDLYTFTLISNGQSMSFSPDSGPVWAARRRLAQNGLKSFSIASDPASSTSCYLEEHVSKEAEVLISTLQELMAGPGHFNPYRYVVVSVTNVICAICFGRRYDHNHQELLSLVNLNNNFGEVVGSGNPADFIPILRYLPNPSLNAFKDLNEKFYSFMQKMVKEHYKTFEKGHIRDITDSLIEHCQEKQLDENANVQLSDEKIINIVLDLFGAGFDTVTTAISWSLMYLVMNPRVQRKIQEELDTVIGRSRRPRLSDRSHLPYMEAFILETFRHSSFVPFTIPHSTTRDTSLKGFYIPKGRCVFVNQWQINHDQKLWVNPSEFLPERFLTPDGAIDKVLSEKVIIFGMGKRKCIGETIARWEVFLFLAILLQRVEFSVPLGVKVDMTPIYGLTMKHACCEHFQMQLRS

| Compound | IC50 [1] | IC50 [2] | also measured |
| --- | --- | --- | --- |
| O=C(O)[C@@H]1CCC[C@H]1C(=O)c1ccc(-c2ccc3c(c2)OCCN3C(=O)Nc2ccccc2)cc1 | 830 nM | – | – |
| CCC1CN(C(=O)Nc2ccccc2)c2ccc(-c3cnc(OCC(C)(C)C(=O)O)nc3)cc2O1 (stereo not drawn) | 310 nM | – | – |
| CCCC1CN(C(=O)Nc2ccccc2)c2ccc(-c3ccc([C@H]4CC[C@H](CC(=O)O)CC4)cc3)cc2O1 (stereo partly drawn) | 160 nM | – | – |
| O=C(O)C[C@H]1CC[C@H](c2ccc(-c3ccc4c(c3)N(C(=O)Nc3ccccc3)CCO4)cc2)CC1 | > 10000 nM | > 10000 nM | – |
| O=C(O)C[C@H]1CC[C@H](c2ccc(-c3cnc4c(c3)OCCN4C(=O)Nc3ccccc3)cc2)CC1 | > 10000 nM | > 10000 nM | – |
| CC1CN(C(=O)Nc2ccccc2)c2ccc(-c3ccc([C@H]4CC[C@H](CC(=O)O)CC4)cc3)cc2O1 (stereo partly drawn) | 33 nM | 91 nM | inhibition in vivo at 10 mg/kg (Mus musculus [3]): 85%; IC50 [4]: 5000 nM; AUC [5]: 79 µM·h |
| CC(C)c1ccccc1NC(=O)N1CCOc2cc(-c3ccc([C@H]4CC[C@H](CC(=O)O)CC4)cc3)ccc21 | 69 nM | – | – |
| O=C(C[C@H]1CC[C@H](c2ccc(-c3ccc4c(c3)OCCN4C(=O)Nc3ccccc3)cc2)CC1)NO | 920 nM | – | – |
| CCC1CN(C(=O)Nc2ccccc2)c2ccc(-c3ccc(OCC4(C(=O)O)CC4)nc3)cc2O1 (stereo not drawn) | 90 nM | – | – |
| CC1COc2cc(-c3ccc([C@H]4CC[C@H](CC(=O)O)CC4)cc3)ccc2N1C(=O)Nc1ccccc1 (stereo partly drawn) | 630 nM | – | – |
| CC(C(=O)O)[C@H]1CC[C@H](c2ccc(-c3ccc4c(c3)OCCN4C(=O)Nc3ccccc3)cc2)CC1 (stereo partly drawn) | 200 nM | – | – |
| CCC1CN(C(=O)Nc2ccccc2)c2ccc(-c3ccc(OCC4(C(=O)O)CCC4)nc3)cc2O1 (stereo not drawn) | 110 nM | – | – |
| CCC1CN(C(=O)Nc2ccccc2)c2ccc(-c3ccc(OC[C@H]4C[C@@H]4C(=O)O)nc3)cc2O1 (relative stereo) | 210 nM | – | – |
| C[C@H]1CN(C(=O)Nc2ccccc2)c2ccc(-c3ccc([C@H]4CC[C@H](CC(=O)O)CC4)cc3)cc2O1 | 360 nM | 530 nM | – |
| CCOc1ccc(NC(=O)N2CCOc3cc(-c4ccc([C@H]5CC[C@H](CC(=O)O)CC5)cc4)ccc32)cc1 | 34 nM | – | – |
| O=C(O)C[C@H]1CC[C@H](c2ccc(-c3ccc4c(c3)OCCN4S(=O)(=O)Cc3ccccc3)cc2)CC1 | > 10000 nM | > 10000 nM | – |
| CCc1ccccc1NC(=O)N1CC(C)Oc2cc(-c3ccc([C@H]4CC[C@H](CC(=O)O)CC4)cc3)ccc21 (stereo partly drawn) | 50 nM | 110 nM | inhibition in vivo at 3 mg/kg (Mus musculus [6]): 92% |
| O=C(O)C[C@H]1CC[C@H](c2ccc(-c3ccc4c(n3)OCCN4C(=O)Nc3ccccc3)cc2)CC1 | 550 nM | – | – |
| CCC1CN(C(=O)Nc2ccccc2)c2ccc(-c3ccc([C@H]4CC[C@H](CC(=O)O)CC4)cc3)cc2O1 (stereo partly drawn) | 45 nM | – | inhibition in vivo at 10 mg/kg (Mus musculus [3]): 88%; AUC [5]: 63 µM·h |

| Compound | IC50 [1] | IC50 [2] | also measured |
| --- | --- | --- | --- |
| Nc1ccccc1NC(=O)N1CCOc2cc(-c3ccc([C@H]4CC[C@H](CC(=O)O)CC4)cc3)ccc21 | 5200 nM | – | – |
| O=C(O)C[C@H]1CC[C@H](c2ccc(-c3ccc4c(c3)OCCN4C(=O)Nc3ccccc3)cc2)CC1 | – | – | inhibition in vivo at 10 mg/kg (Mus musculus [3]): 52%; metabolised at 12 h [7]: 10% |
| O=C(O)C[C@H]1CC[C@H](c2ccc(-c3ccc4c(c3)OCCN4C(=O)Nc3ccccc3C(=O)O)cc2)CC1 | > 10000 nM | > 10000 nM | – |
| CC1Oc2cc(-c3ccc([C@H]4CC[C@H](CC(=O)O)CC4)cc3)ccc2N(C(=O)Nc2ccccc2)C1=O (stereo partly drawn) | > 10000 nM | > 10000 nM | – |
| O=C(Nc1ccccc1)N1CCOc2cc(-c3ccc([C@H]4CC[C@H](Cc5nnn[nH]5)CC4)cc3)ccc21 | 170 nM | – | inhibition in vivo at 10 mg/kg (Mus musculus [3]): 9% |
| O=C(O)C[C@H]1CC[C@H](c2ccc(-c3ccc4c(c3)OCCN4C(=O)Nc3cc(C(F)(F)F)ccc3F)cc2)CC1 | 1200 nM | – | – |
| O=C(O)C[C@H]1CC[C@H](c2ccc(-c3ccc4c(ccn4C(=O)Nc4ccccc4)c3)cc2)CC1 | – | – | Selectivity ratio (Homo sapiens [8]): 100; Selectivity ratio (Homo sapiens [9]): 100; Papp [10]: 17 ×10⁻⁶ cm/s; solubility [11]: 20 µM (≈ 9.05 µg/mL); hepatocyte CLint [12]: 3.9 µL/min/1e6 cells; hepatocyte CLint [13]: 7.6 µL/min/1e6 cells; fold induction at 30 µM (CYP1A1): 3; inhibition in vivo at 10 mg/kg (Mus musculus [3]): 45% |
| O=C(O)C[C@H]1CC[C@H](c2ccc(-c3ccc4c(c3)OCCN4c3nc4ccccc4o3)cc2)CC1 | > 10000 nM | > 10000 nM | – |
| CS(=O)(=O)NC(=O)C[C@H]1CC[C@H](c2ccc(-c3ccc4c(c3)OCCN4C(=O)Nc3ccccc3)cc2)CC1 | 7300 nM | – | – |
| O=C(O)C[C@H]1CC[C@@H](c2ccc(-c3ccc4c(c3)OCCN4C(=O)Nc3ccccc3)cc2)CC1 | 45 nM | 52 nM | inhibition in vivo at 3 mg/kg (Mus musculus [6]): 2% |
| O=C(O)C[C@H]1CC[C@H](c2ccc(-c3cccc4c3OCCN4C(=O)Nc3ccccc3)cc2)CC1 | > 10000 nM | > 10000 nM | – |
| CC(C)C1CN(C(=O)Nc2ccccc2)c2ccc(-c3ccc([C@H]4CC[C@H](CC(=O)O)CC4)cc3)cc2O1 (stereo partly drawn) | 300 nM | – | – |
| O=C(O)C[C@H]1CC[C@H](c2ccc(-c3ccc4c(c3)OCCN4C(=O)NCCCCc3ccccc3)cc2)CC1 | 36 nM | – | inhibition in vivo at 10 mg/kg (Mus musculus [3]): 23% |
| O=C(O)C[C@H]1CC[C@H](c2ccc(-c3ccc4c(c3)OCCN4C(=O)Nc3ccccc3C(F)(F)F)cc2)CC1 | 16 nM | – | – |
| CCc1ccccc1NC(=O)N1C[C@H](C)Oc2cc(-c3ccc([C@H]4CC[C@H](CC(=O)O)CC4)cc3)ccc21 | 53 nM | 85 nM | inhibition in vivo at 3 mg/kg (Mus musculus [6]): 46% |
| CCc1ccccc1NC(=O)N1CCOc2cc(-c3ccc([C@H]4CC[C@H](CC(=O)O)CC4)cc3)ccc21 | 37 nM | – | – |
| O=C(O)C[C@H]1CC[C@H](c2ccc(-c3ccc4c(c3)OCCN4C(=O)NC3CCCCC3)cc2)CC1 | 160 nM | – | – |
| O=C(O)C[C@H]1CC[C@H](c2ccc(-c3ccc4c(c3)OCCN4C(=O)NCc3ccccc3)cc2)CC1 | 110 nM | – | – |
| O=C(O)C[C@H]1CC[C@H](c2ccc(-c3ccc4c(c3)OCCN4C(=O)Cc3ccccc3)cc2)CC1 | 110 nM | – | – |
